Test results published in US8008320B2, “3-(indolyl)-4-arylmaleimide derivatives and their use as angiogenesis inhibitors” (Johannes Gutenberg-Universitatis, priority 2004, dated 2011).

Structure (SMILES) | melting point
COc1cc(C2=C(c3c(C)[nH]c4ccccc34)C(=O)NC2=O)cc(OC)c1OC [Example 5, 3-(2-Methylindole-3-yl)-4-(3,4,5-trimethoxyphenyl)-1H-pyrrole-2,5-dione] | 266 °C
COc1cc(C2=C(c3cc4ccccc4[nH]3)C(=O)NC2=O)cc(OC)c1OC [Example 7, 3-(Indole-2-yl)-4-(3,4,5-trimethoxyphenyl)-1H-pyrrole-2,5-dione] | 252 °C
COc1cc(C2=C(c3cn(C)c4ccccc34)C(=O)NC2=O)cc(OC)c1OC [Example 4, 3-(1-Methylindole-3-yl)-4-(3,4,5-trimethoxyphenyl)-1H-pyrrole-2,5-dione] | 187 °C
COc1cc(C2=C(c3c(-c4ccccc4)[nH]c4ccccc34)C(=O)NC2=O)cc(OC)c1OC [Example 6, 3-(2-Phenylindole-3-yl)-4-(3,4,5-trimethoxyphenyl)-1H-pyrrole-2,5-dione] | 304 °C

Next, values leading:

melting point | Structure (SMILES)
210 °C | COc1ccc(C2=C(c3c[nH]c4ccccc34)C(=O)NC2=O)cc1OC [Example 2, 3-(Indole-3-yl)-4-(3,4-dimethoxyphenyl)-1H-pyrrole-2,5-dione]
268 °C | COc1ccc2[nH]cc(C3=C(c4cc(OC)c(OC)c(OC)c4)C(=O)NC3=O)c2c1 [Example 3, 3-(5-Methoxyindole-3-yl)-4-(3,4,5-trimethoxyphenyl)-1H-pyrrole-2,5-dione]
162 °C | COc1cc(C2=C(c3c[nH]c4ncccc34)C(=O)NC2=O)cc(OC)c1OC [Example 8, 3-(7-Azaindol-3-yl)-4-(3,4,5-trimethoxyphenyl)-1H-pyrrole-2,5-dione]
